Common to all, as to format: physicochemical
Data set [1] in a line: Solid form stability under stressed conditions (wet, dry, high humidity) by XRPD. The conditions noted are these: for Dry_XRPD pattern: dry (45° C. under vacuum); for Humid_XRPD pattern: high humidity (RH >95%); for Wet_XRPD pattern: wet. The protocol: The solid form stability of each salt was studied by XRPD under stressed conditions: wet, dry (45° C. under vacuum) and high humidity (RH >95%).

Data set [2] is described as follows: Dynamic vapor sorption (DVS) with XRPD of the post-DVS sample. The settings on record: for solid form by XRPD after the DVS experiment: post DVS sample. Here is the method:
Samples were analyzed using an Aquadyne DVS-2 gravimetric water sorption analyzer. The relative humidity was adjusted between 2-95% and the weight of the sample was continuously monitored and recorded.
[…]: β-GPA maleate (1:1) Form II, β-GPA fumarate (1:1), β-GPA maleate (2:1), β-GPA succinate (2:1) and β-GPA oxalate (1:1) were analyzed by DVS experiment followed by XRPD analysis of the sample at the end of the experiment.
Sample 2162-64-1 was analyzed by DVS in triplicate and the post DVS samples were characterized by XRPD to identify the form at the end of the experiment.

A short description of data set [3]: Solid form stability of salts in different solvents (slurry, XRPD). The settings on record: 48 hours, room temperature. Here is the method: Three salts were studied for solid form stability in water (disproportionation test), methanol, acetonitrile, and acetone:water (9:1) for 48 hours at room temperature.
Data set [4] is described as follows: Solid form stability at 40° C. and 75% humidity. The conditions noted are these: 40° C. and 75% RH for seven days. The protocol: Solid form stability studies of β-GPA fumarate, succinate, and oxalate were carried out at 40° C. and 75% RH for seven days. Around 30 mg of the salts were placed in 4 mL vials which were placed in a saturated solution of sodium chloride (2 mL) with lids closed at 40° C. […]

Data set [5] in a line: Flowability measurement using Hanson Flodex unit. The settings on record: for flow character from the experimental data: summary of density and Flodex measurements. The source says: Method: A cylindrical vessel is secured to the stand and above that a funnel is also secured such that the bottom of the funnel is close to the vessel. A powder load of ≈50-60 g is then poured through the funnel into the middle of the cylinder. The lever device is pulled to open the hole in the disk quickly and without vibration. If a powder slowly flows through the small-diameter holes, leaving a cavity shaped like an upside-down, truncated cone, the test is considered positive. If a powder flocculates in bulk and falls abruptly, forming a cylindrical cavity, the test is considered negative. […] If the experiment is negative, the powder is tested again with a disk having a larger hole.

A further data set can be described thus: Bulk and tapped density. Here is the method:
The bulk density of β-GPA oxalate (Pattern 18 B), succinate (Pattern 15A), and fumarate (Pattern 7A) were determined by pouring in a known amount of salt (g) into a measuring cylinder. The volume (Vi) occupied by the salt was recorded and the bulk density (ρB) was determined using equation 1. ρB=g/Vi (1)
The tapped densities of the salts were determined using a Tap density analyzer. A known amount of salt was poured (g) into a measuring cylinder and the initial volume was recorded and tapped using a Tap density analyzer. The final volume (Vf) after tapping was recorded and the tapped density (ρT) was calculated by using equation 2. ρT=g/Vf (2)

A short description of data set [6]: Carr's index and Hausner ratio (predicted flowability). The source says:
The flow properties of β-GPA are sub-optimal. The bulk density is 0.389 g/cc and the tapped density is 0.627 g/cc. These measurements can be used to calculate the Carr's index and Hausner ratio for a substance. The Carr's index and Hausner ratio are indicators of flowability of a powder. As known in the art, e.g., as described in Carr R. L. Chem. Eng. 1965, 72, 163-168, the relationship to flowability of a powder to the Carr's index and Hausner ratio is based on the scale shown in Table 6 below.
Carr's index or Carr's compressibility index (C) is an indication of the compressibility of a powder. It can be calculated using the equation below: Carr's index (C)=100(Vi−Vf)/Vi (3) A Carr's index greater than 25 is considered to be an indication of poor flowability while a value below 15 is an indication of good flowability.
The Hausner ratio is a number that is correlated to the flowability of a powder or granular material. It is calculated by using the equation below: Hausner ratio=Vi/Vf (4)

Experiment in data set [7]: as above
The settings on record: Table 18, scale of Table 17.

Where [8] appears, read: water (disproportionation test).
Where [9] appears, read: calculated from bulk and tapped volumes.

This is an account of results in US9884813B1, “Pharmaceutically acceptable salts of B-guanidinopropionic acid with improved properties and uses thereof” (Rgenix, Inc., priority 2017, dated 2018).

SMILES strings stand for the structures. “Also recorded” adds a separate entry of the source. Where two headings read alike, the source gives them in different places.

Consider `Cl.NC(N)=NCCC(=O)O` [β-GPA hydrochloride], for which, in data set [1], the Dry_XRPD pattern result is given as “Pattern 1A”, the “stability in dry conditions” value is recorded as “stable”, the Humid_XRPD pattern entry was “Deliquesce” and the “stability under high humidity conditions” value is “deliquesced”. In data set [1], the Wet_XRPD pattern result was “Pattern 1A”.

Take `N=C(N)NCCC(=O)O.O=C(O)C[C@H](O)C(=O)O` [β-GPA malate (1:1)]: in data set [1], the Dry_XRPD pattern result is listed as “Pattern 12A”, the “stability in dry conditions” value is given as “stable”, the Humid_XRPD pattern result is given as “Deliquesce” and the “stability under high humidity conditions” value is given as “deliquesced”. In data set [1], the Wet_XRPD pattern entry is “Pattern 12A”.

With `N=C(N)NCCC(=O)O.O=C(O)/C=C\C(=O)O` [β-GPA maleate (1:1) Form II], in data set [2], the “moisture uptake during the DVS experiment” value was around 25% and the “solid form by XRPD after the DVS experiment” value (from here on “solid form by XRPD”) is reported as “no form change”. Also, the moisture uptake entry in data set [2] (at around 95% RH) is “around 25%”. Moreover, in data set [1], the Dry_XRPD pattern entry was “Pattern 6D”, the Humid_XRPD pattern result is on record as “Pattern 6D” and the Wet_XRPD pattern result was “Pattern 6D”. Further, the “XRPD pattern after slurry” value in data set [3] (acetone:water (9:1)) is given as “matched with the original pattern of the salt (Pattern 6D) along with some additional peaks”. Further, the “XRPD pattern after slurry” value in data set [3] (acetonitrile) was “retain its XRPD pattern”. The “XRPD pattern after slurry” value in data set [3] (methanol) is “retain its XRPD pattern”. Besides, the “XRPD pattern after slurry” value in data set [3] (setting [8]) was “retained their XRPD patterns”.

Take `N=C(N)NCCC(=O)O.O=C(O)/C=C/C(=O)O` [β-GPA fumarate]: the “solid form by XRPD” value in data set [2] is reported as “retained their XRPD; also recorded: presence of two peaks from the β-GPA”. Also, the “XRPD pattern after slurry” value in data set [3] (setting [8]) was “retained their XRPD patterns”. Moreover, the “solid form stability (XRPD)” value in data set [4] is “retained their original XRPD pattern; also recorded: stable”. The “flow character from the experimental data” value in data set [5] is on record as “excellent”.

For `N=C(N)NCCC(=O)O.O=C(O)C(=O)O` [β-GPA oxalate (1:1)], the results for the “solid form by XRPD” value in data set [2], in data set [2] (listed as 1:1 oxalate salt) and in data set [2] (listed as 1:1 β-GPA oxalate) were “retained their XRPD”, “no form change” and “no form change”, respectively. Besides, in data set [1], the Dry_XRPD pattern result is “Pattern 18A”. Also, the “stability in dry conditions” value in data set [1] was “stable”. Moreover, the Humid_XRPD pattern entry in data set [1] is “Pattern 18A”. In addition, the “stability under high humidity conditions” value in data set [1] is reported as “stable”. Moreover, the Wet_XRPD pattern result in data set [1] is reported as “Pattern 18A”. Moreover, the “XRPD pattern after slurry” value is recorded as “retain their XRPD pattern” in data set [3] (acetone:water (9:1)); “retain their XRPD pattern” in data set [3] (acetonitrile); “retain their XRPD pattern” in data set [3] (methanol); “retained their XRPD patterns” in data set [3] (setting [8]); “retained their XRPD pattern” in data set [3] (water (disproportionation test), listed as 1:1 β-GPA oxalate). Also, the “solid form stability (XRPD)” value in data set [4] was “retained their original XRPD pattern; also recorded: stable”; in data set [4] (listed as 1:1 oxalate salt) it was “stable”. This compound also had a Bulk density in the data set “Bulk and tapped density” of 0.505 g/cc. In addition, the Tapped density in “Bulk and tapped density” came out at 0.623 g/cc. For the same compound, in data set [6] (setting [9]), the “Carr's index” value is reported as 18.7. Also, the Hausner ratio in data set [6] (setting [9]) is listed as 1.23. Also, the Flow character entry in data set [6] (predicted, scale of Table 6 (Carr's index)) is listed as “Fair (16-20)”; in data set [7] it was “Fair (16-20)”. The “Did solid pass?” value is reported as “No” in data set [5] (Disc pore size 12 mm); “No” in data set [5] (Disc pore size 18 mm); “No” in data set [5] (Disc pore size 24 mm); “Yes” in data set [5] (Disc pore size 26 mm); “Yes” in data set [5] (Disc pore size 28 mm); “Yes” in data set [5] (Disc pore size 30 mm). In addition, the “flow character from the experimental data” value in data set [5] is “fair”.

For `CCS(=O)(=O)O.N=C(N)NCCC(=O)O` [ethanesulfonic acid salt], in data set [1], the “stability in dry conditions” value is reported as “stable” and the “stability under high humidity conditions” value is reported as “deliquesced”.

Consider `N=C(N)NCCC(=O)O.N=C(N)NCCC(=O)O.O=C(O)/C=C\C(=O)O` [β-GPA maleate (2:1)], for which, in data set [1], the Dry_XRPD pattern entry was “Pattern 6C”, the Humid_XRPD pattern entry is given as “Pattern 6B” and the Wet_XRPD pattern entry was “Pattern 6B”.

In the case of `N=C(N)NCCC(=O)O.O=P(O)(O)O` [β-GPA phosphate], in data set [1], the Dry_XRPD pattern result is “Pattern 4A”, the “stability in dry conditions” value is listed as “stable”, the Humid_XRPD pattern entry is listed as “Deliquesce” and the “stability under high humidity conditions” value is given as “deliquesced”. The Wet_XRPD pattern result in data set [1] is “Pattern 4A”.

As to `N=C(N)NCCC(=O)O.O=C(O)/C=C/C(=O)O` [β-GPA fumarate (1:1)], in data set [2] (listed as 1:1 β-GPA fumarate), the “moisture uptake during the DVS experiment” value was below 1% and the “solid form by XRPD” value is recorded as “presence of β-GPA peaks along with Pattern 7A”. Further, in data set [2] (listed as 1:1 fumarate salt), the “solid form by XRPD” value was “no form change”. Further, in data set [1], the Dry_XRPD pattern entry is given as “Pattern 7A”, the “stability in dry conditions” value is recorded as “stable”, the Humid_XRPD pattern result is recorded as “Pattern 7A” and the “stability under high humidity conditions” value is reported as “stable”. In data set [1], the Wet_XRPD pattern entry was “Pattern 7A”. Further, the “XRPD pattern after slurry” value in data set [3] (acetone:water (9:1)) is given as “retain their XRPD pattern”. Also, the “XRPD pattern after slurry” value in data set [3] (acetonitrile) is on record as “retain their XRPD pattern”. Moreover, the “XRPD pattern after slurry” value in data set [3] (methanol) is “retain their XRPD pattern”. Also, in data set [3] (water (disproportionation test), listed as 1:1 β-GPA fumarate), the “XRPD pattern after slurry” value is “retained their XRPD pattern”. In addition, the “solid form stability (XRPD)” value in data set [4] (listed as 1:1 fumarate salt) is listed as “stable”.

Take `N=C(N)NCCC(=O)O.O=C(O)/C=C\C(=O)O` [β-GPA maleate (1:1) Form I]: in data set [1], the Dry_XRPD pattern result is listed as “Pattern 6A”, the “stability in dry conditions” value is “stable”, the Humid_XRPD pattern entry was “Pattern 6A” and the “stability under high humidity conditions” value was “stable”. For the same compound, the Wet_XRPD pattern result in data set [1] was “Pattern 6A”.

Consider `CS(=O)(=O)O.N=C(N)NCCC(=O)O` [β-GPA methanesulfonate], for which, in data set [1], the Dry_XRPD pattern result was “Pattern 19A”, the “stability in dry conditions” value was “stable”, the Humid_XRPD pattern result is “Deliquesce” and the “stability under high humidity conditions” value is “deliquesced”. Moreover, in data set [1], the Wet_XRPD pattern result is on record as “Pattern 19A”.
